This is an account of results in patent US9618513B2, “Compositions and methods for detecting and treating colorectal cancer” (The Regents of the University of Michigan, priority 2014, dated 2017).

Holding throughout (type): cell-based, human
Test [1] has as its system primary colon cancer cell line SBCA. The test can be described thus: Proliferation of primary colon cancer cell line SBCA. How it is done: FIG. 21A-E A. Dot1L/H3K79me2 inhibitor EZP004777 (10 uM) had no effect on SUZ12 expression but reduce Sox2. B. EZP004777 had no effect on primary colon cancer cell line SBCA. C. EZH2 inhibitor DZNep reduced SBCA cell proliferation. D. SUZ12 knockdown reduced H3K27m3 level. E. Effect of I1-22 on tumor sphere assay was analyzed in shEZH2, shSUZ12 and Dznep treated cells.
Three primary colon cancer cell lines (SB, WR, JR) were established from fresh colon tissues. These primary colon cancer cells and DLD1 (ATCC) were studied. Colon cancer cells were treated with recombinant IL-22 (R&D) for different time points. The EZH2 inhibitor DZNep was added in conventional or sphere culture (see, e.g., Kryczek, I., et al., (2012) International journal of cancer 130, 29-39). Tumor cell sphere formation and gene expression were examined (see, e.g., Kryczek, I., et al., (2012) International journal of cancer 130, 29-39).

The subject of another test is SUZ12, Sox2. The test can be described thus: SUZ12 and Sox2 expression after DOT1L/H3K79me2 inhibitor (FIG. 21A). To be noted: 10 uM.
Test [2] concerns STAT3 occupancy on gene promoters. As to the kind of experiment: STAT3-ChIP assay. On the procedure: (A) IL-22 induced STAT3 phosphorylation. Colon cancer cells were treated with IL-22 for different time points. The protein levels of phosphorylated STAT3 and STAT3 were detected by Western blotting. (B, C) IL-22 induced colon cancer spheres via STAT3. Sphere assay was performed with shSTAT3 colon cancer cells in the presence of IL-22. Results were shown as sphere images (b) and the mean numbers of spheres in triplicate (c). (n=5. P<0.01). (D-F) IL-22 stimulated colon cancer sternness gene expression via STAT3. Colon cancer cells expressing shSTAT3 or scrambled vector were cultured with IL-22. Stem cell core gene mRNAs were detected by real-time PCR after 6 hours (n=5, *P<0.05). (G, H) IL-22 causes STAT3 occupancy on SOX2 promoter areas. STAT3-ChIP assay was performed in DLD-1 cells cultured with or without IL-22. One of at least three experiments is shown.
(A-C)IL-22 increases STAT3 occupancy on the DOT1L (A), AFF4 (B), and MLLT3 (C) proximal promoter. STAT3-ChIP assay was performed in DLD-1 colon cancer cells cultured with or without IL-22. One of three experiments is shown. (D-F) STAT3 knock down reduces H3K79me2 occupancy at proximal promoters of core stem cell genes. H3K79me2-ChIP was performed in colon cancer cells cultured with IL-22 for 24 hours. One of three experiments is shown.
A. The protein level of phosphorylated STAT3, STAT1 and STATS were activated by IL-22. B. The effect of STAT3 knock down. C. The effect of IL-22 on cell proliferation was analyzed using H^3 Thymidine Incorporation in Stat3 knock down cells. D. Knock down of STAT3 reduced the expression of EZH2 and SUZ12. E. Based on the ENCODE STAT3-ChIP-Seq data base, STAT3 occupancy on the promoter areas of SUZ12 and EED is shown. F. SUZ12/EED DNA was detected by ChIP assay using an antibody against STAT3, c-fos was used as a positive control.
ChIP assay was performed according to the protocol with exceptions stated below (Upstate, Millipore; http://www. (followed by) millipore.com/techpublications/tech1/mcproto407). Crosslinking was performed with 1% formaldehyde or 1% paraformaldehyde for 10 minutes. […]

The subject of another test is colon cancer cells. As to the kind of experiment: Apoptosis by Annexin V FACS. On the procedure:
FIG. 20A-D A. Realtime PCR was used to detected the mRNA level of p53, p21, CCNE1 after stimulated with IL-22 in primary colon cancer cell lines. B. The effect of IL-22 on colon cancer cell apoptosis was analyzed by Annexin V using FACS. C.D The effect of IL-22 on 5-Fu induced apoptosis was also analyzed by Annexin V.

`CC(C)N(CCCNC(=O)Nc1ccc(C(C)(C)C)cc1)C[C@H]1O[C@@H](n2ccc3c(N)ncnc32)[C@H](O)[C@@H]1O` [EPZ004777]: the SBCA cell proliferation result in test [1] was “no effect”. Besides, in the test on SUZ12, Sox2, the SUZ12 expression result is given as “no effect” and the Sox2 expression entry is recorded as “reduce”.
With “IL-22: recombinant IL-22 (R&D systems), cytokine interleukin-22”, the “recruitment of STAT3 to the SUZ12 and EED promoter” value in test [2] (ChIP realtime PCR) is given as “significantly increased”. In test [2] (DLD-1 with or without IL-22), the “STAT3 binding on the SOX2 promoter area” value is given as “increased”; the “STAT3 binding to the DOT1L, AFF4 and MLLT3 promoter” value was “increased”. For the same compound, in the test on colon cancer cells (IL-22 combined with 5-FU), the cell apoptosis entry is reported as “no change”. Further, in the test on colon cancer cells (IL-22 stimulation alone), the cell apoptosis result is reported as “no change”.
